Series [1] in a line: Acute toxicity test, oral. Particulars: both sexes, rat, in vivo, orally administered, suspended in 0.5% aqueous CMC-Na, SD male and female rats, observed for seven days. An excerpt: Compounds of the present invention was suspended in 0.5% aqueous solution of CMC-Na and the suspensions were orally administered to SD male and female rats.
The subject of series [2] is animal model of myocardial infarct. Particulars: in vivo; cited from earlier work.
The test system of series [3] is muscular dystrophy hamsters. The note with it: cited from earlier work.
The next series concerns blood platelets. Particulars: cited from earlier work.
Series [4] can be described thus: Release of an active compound in blood: incubation in rat serum, HPLC. The format is in vitro ADME. The note with it: final concentration 100 µ M, 37°C, 5 minutes. How it is done:
(2S,3S)-2-acetoxy-3-((S)-4-methyl-2-phenylsulfonylaminovalerylamino)tetrahydrofuran obtained in Example 88 was dissolved in acetonitrile and the solution was added to rat serum so that its final concentration was adjusted to 100 µ M. The mixture was incubated at 37°C for 5 minutes. The mixture was then added with acetonitrile and centrifuged, and the resulting solution portion was applied to HPLC for analysis. For comparison, solutions obtained by dissolving (3S)-3-((S)-4-methyl-2-phenylsulfonylaminovalerylamino)-2-tetrahydrofuranol obtained in Example 1 and (2S,3S)-2-acetoxy-3-((S)-4-methyl-2-phenylsulfonylaminovalerylamino)tetrahydrofuran obtained in Example 88 in acetonitrile respectively were examined by HPLC.
The HPLC conditions were as follows: Column: Nucleosil 1005 C18, 4.6×250 mm (Nagel) Column temperature: 50°C Mobile phase: CH3CN:H2O:PIC A Low UV (Waters) = 22:78:1 Flow rate: 1 ml/min Detection wavelength: UV 222 nm

Series [5] can be described thus: Release of an active compound in blood: incubation in human serum, HPLC. The format is in vitro ADME. Particulars: same procedure.
Series [6] in a line: Release of an active compound in blood: incubation in dog serum, HPLC. Type of series: in vitro ADME. Particulars: same procedure.
Series [7] deals with experimental model of cataract. The note with it: cited from earlier work.
For series [8] the following is noted: rats, osteoclasia accentuated by parathormone; cited from earlier work.
The test system of series [9] is microtubule-binding proteins. The note with it: after cerebral ischemia; cited from earlier work.
The target of series [10] is T1, cathepsin B (Sigma, C-6286) (Bos taurus, UniProt P07688).
T1 construct: purchased Sigma C-6286
Kind of series: Inhibitory activity against cathepsin B. The format is biochemical. Particulars: Inhibitory activity against cathepsin B (Table-5). How it is done:
Inhibitory activity against cathepsin B (Sigma, C-6286) was determined according to a method described in a literature (Biochemical Journal, Vol. 201, p. 189, 1982).

For a further series, the target named is T2, m-Calpain (Rattus norvegicus, UniProt Q07009).
T2 construct: m-Calpain was purified from brains of rats; from tissue; host or cells: rat brain
T2 sequence (Q07009 20-700 limits assumed): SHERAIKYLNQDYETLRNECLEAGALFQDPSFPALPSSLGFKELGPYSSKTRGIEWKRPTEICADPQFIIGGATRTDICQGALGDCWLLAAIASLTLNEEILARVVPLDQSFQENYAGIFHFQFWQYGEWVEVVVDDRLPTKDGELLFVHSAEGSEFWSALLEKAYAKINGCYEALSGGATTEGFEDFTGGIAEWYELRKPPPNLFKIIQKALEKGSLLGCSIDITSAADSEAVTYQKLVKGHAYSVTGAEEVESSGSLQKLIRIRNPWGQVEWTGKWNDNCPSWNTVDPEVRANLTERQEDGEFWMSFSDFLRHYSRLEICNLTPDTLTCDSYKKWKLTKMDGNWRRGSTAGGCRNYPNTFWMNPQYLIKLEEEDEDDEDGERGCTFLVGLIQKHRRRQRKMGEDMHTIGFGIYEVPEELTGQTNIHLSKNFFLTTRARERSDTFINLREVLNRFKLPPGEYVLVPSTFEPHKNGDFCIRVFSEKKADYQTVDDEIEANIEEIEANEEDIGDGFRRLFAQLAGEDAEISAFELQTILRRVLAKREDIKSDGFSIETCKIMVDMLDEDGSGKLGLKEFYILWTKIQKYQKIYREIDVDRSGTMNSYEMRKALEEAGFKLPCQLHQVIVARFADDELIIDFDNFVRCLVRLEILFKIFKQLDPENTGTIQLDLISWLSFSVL
T2 sequence (Q64537 1-270 partner): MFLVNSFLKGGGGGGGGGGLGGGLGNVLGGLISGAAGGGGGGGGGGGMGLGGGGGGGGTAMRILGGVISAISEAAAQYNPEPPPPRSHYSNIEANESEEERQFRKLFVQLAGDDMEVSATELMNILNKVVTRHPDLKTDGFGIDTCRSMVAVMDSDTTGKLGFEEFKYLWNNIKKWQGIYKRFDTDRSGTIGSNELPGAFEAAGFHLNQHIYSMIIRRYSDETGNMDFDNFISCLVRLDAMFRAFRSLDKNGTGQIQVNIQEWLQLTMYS
Kind of series: Inhibitory activity against calpain (m-Calpain purified from brains of rats). Type of series: biochemical. On the procedure:
m-Calpain was purified from brains of rats according to a method described in a literature (Journal of Biological Chemistry, Vol. 259, p. 3210, 1984), and the inhibitory activity was determined in a manner according to a published method (Journal of Biological Chemistry, Vol. 259, p. 12489, 1984).

The test system of another series is axon. The note with it: head injury model using a rat; cited from earlier work.
In the next series the test system is IgE. Particulars: cited from earlier work.
The next series concerns IgG. The note with it: cited from earlier work.
Where [11] appears, read: Inhibitory activity against calpain (Table-6).

The LD50 is the dose expected to kill half of the subjects tested. A high value points to lower toxicity. In series [1], `CC(=O)O[C@@H]1OCC[C@@H]1NC(=O)[C@H](CC(C)C)NC(=O)c1ccccc1F` [Example 96, (2S,3S)-2-acetoxy-3-{(S)-2-(2-fluorobenzoylamino)-4-methylvalerylamino}tetrahydrofuran] came in with an LD50 at 7 days of less than 2000 mg/kg.

With `CCOC(=O)[C@@H]1O[C@H]1C(=O)NC(CC(C)C)C(=O)N1CCN(Cc2ccc(OC)c(OC)c2OC)CC1.CCOC(=O)[C@@H]1O[C@H]1C(=O)NC(CC(C)C)C(=O)N1CCN(Cc2ccc(OC)c(OC)c2OC)CC1.O=S(=O)(O)O` (some centres unmarked) [NCO-700], in series [2], the “efficacy in an animal model of myocardial infarct” value was “effective”.

For `CC(=O)O[C@@H]1OCC[C@@H]1NC(=O)[C@H](CC(C)C)NS(=O)(=O)c1ccc(C)cc1` [Example 106, (2S,3S)-2-acetoxy-3-{(S)-4-methyl-2-(4-methylphenylsulfonylamino)valerylamino}tetrahydrofuran], in series [1], the LD50 at 7 days is less than 2000 mg/kg.

As to `CCOC(=O)[C@H]1O[C@@H]1C(=O)N[C@@H](CC(C)C)C(=O)NCCC(C)C` [Example E-64-d, E-64-d], in series [3], the life prolongation effect result was “life prolongation effect”. In the series with blood platelets, the “platelet aggregation caused by thrombin” value is recorded as “suppressed”.

Regarding `CC(=O)O[C@@H]1OCC[C@@H]1NC(=O)[C@H](CC(C)C)NS(=O)(=O)c1ccccc1` [Example 88, (2S,3S)-2-acetoxy-3-((S)-4-methyl-2-phenylsulfonylaminovalerylamino)tetrahydrofuran], in series [4], the “hydrolyzed and converted into the active form” value was 97%. Moreover, the “formation of active form” value in series [5] and in series [6] was “formations of active form were also observed” each time. This molecule gave a median lethal dose (LD50) at 7 days in series [1] of less than 2000 mg/kg.

Regarding `CC(C)C[C@H](NC(=O)[C@H]1O[C@@H]1C(=O)O)C(=O)NCCCCN=C(N)N` [Example E-64, E-64], in [7], the “efficacy in an experimental model of cataract” value is “effective”. Also, in [8], the hydroxyproline concentration result was “lowered” and the serum calcium concentration result is listed as “lowered”.

On to `CC(C)CCNC(=O)[C@H](CC(C)C)NC(=O)[C@H]1O[C@@H]1C(=O)O` [Example E-64-c, E-64-c], for which the “degradation of microtubule-binding proteins” value in [9] is on record as “suppressed”.

As a reminder, the IC50 is the point on the concentration scale where inhibition reaches its midpoint. `CC(C)C[C@H](NC(=O)OCC1CCCCO1)C(=O)N[C@H]1CCOC1O` (stereo partly drawn) [Example 24, (3S)-3-{(S)-4-methyl-2-(2-tetrahydropyranylmethoxycarbonylamino)valerylamino}-2-tetrahydrofuranol]: the IC50 in series [10] is 2900 nM; on m-Calpain (setting [11]), 1300 nM.

For `CC(C)C[C@H](NC(=O)c1ccc(F)cc1)C(=O)N[C@H]1CCOC1O` (stereo partly drawn) [Example 42, (3S)-3-{(S)-2-(4-fluorobenzoylamino)-4-methylvalerylamino}-2-tetrahydrofuranol], the figures for the IC50 (in series [10]; against m-Calpain (setting [11])) were 550 nM and 820 nM, respectively.

With `CC(C)C[C@H](NC(=O)OCc1ccccc1Cl)C(=O)N[C@H]1CCOC1O` (stereo partly drawn) [Example 16, (3S)-3-{(S)-2-(2-chlorobenzyloxycarbonylamino)-4-methylvalerylamino}-2-tetrahydrofuranol], the IC50 in series [10] came to 1000 nM; on m-Calpain (setting [11]) it was 340 nM.

In the case of `CC(=O)N[C@@H](CC(C)C)C(=O)N[C@@H](CC(C)C)C(=O)N[C@H](C=O)CCCNC(=N)N` [leupeptin], the “protective effect on axon” value in the series with axon is recorded as “protective effect on axon was observed”.

Turning to `Cc1ccccc1C(=O)N[C@@H](CC(C)C)C(=O)N[C@H]1CCOC1O` (stereo partly drawn) [Example 44, (3S)-3-{(S)-4-methyl-2-(2-methylbenzoylamino)valerylamino}-2-tetrahydrofuranol], the IC50 in [10] was 1450 nM; against m-Calpain (setting [11]) it was 580 nM.

Take `CCCC[C@H](NC(=O)OCc1ccccc1)C(=O)N[C@H]1CCOC1O` (stereo partly drawn) [Example 6, (3S)-3-((S)-2-benzyloxycarbonylaminohexanoylamino)-2-tetrahydrofuranol]: the IC50 in series [10] was determined as 1350 nM; at m-Calpain (setting [11]), 2300 nM.

Regarding `CCc1ccc(C(=O)N[C@@H](CC(C)C)C(=O)N[C@H]2CCOC2O)cc1` (stereo partly drawn) [Example 50, (3S)-3-{(S)-2-(4-ethylbenzoylamino)-4-methylvalerylamino}-2-tetrahydrofuranol], the concentration for half-maximal inhibition (IC50) in series [10] is 200 nM; on m-Calpain (setting [11]) it was 650 nM.

As to `NC(N)=NCCCCNC(=O)[C@H](Cc1ccccc1)NC(=O)[C@H]1O[C@@H]1C(=O)O` [Estatin A], the “production of IgE” value with IgE is listed as “specifically suppresses”. Moreover, the “production of IgG” value with IgG is recorded as “does not affect”. Also, in series [8], the hydroxyproline concentration entry is reported as “lowered” and the serum calcium concentration entry is recorded as “lowered”.

Turning to `CC(C)C[C@H](NC(=O)c1ccco1)C(=O)N[C@H]1CCOC1O` (stereo partly drawn) [Example 61, (3S)-3-{(S)-2-(2-furoylamino)-4-methylvalerylamino}-2-tetrahydrofuranol], the IC50 was determined as 1200 nM in series [10] and 350 nM against m-Calpain (Inhibitory activity against calpain (continuation of Table-6)).

The values are drawn from patent EP0810221A1 (MITSUBISHI CHEMICAL CORPORATION, priority 1995, dated 1996).
